Experimental data: PMC2442655, “Structure-Activity Relationship and Substrate-Dependent Phenomena in Effects of Ginsenosides on Activities of Drug-Metabolizing P450 Enzymes” (PLoS ONE, 2008)
Like-named read-outs stand apart in the source and are kept apart here.

Assays:
[1] = molecular target: T1, CYP3A4 (Homo sapiens, UniProt P08684); assay: Nifedipine oxidation in human liver microsomes; settings: for Effect on NF in vitro metabolism: low concentrations (1∼10 µM); for Effect on NF metabolism: 1-50 µM
Experimental: (§1) The effects of the ginsenosides and sapogenins on the in vitro metabolism of CBZ were evaluated using HLM. […] Vehicle control samples were treated with methanol at a final concentration of 0.5% instead of test compounds. The reaction was initiated by adding 60 µL pre-warmed NADPH-regenerating system (50 µL BD solution A and 10 µL BD solution B). After incubation at 37°C for 30 min, the reaction system was quenched by adding 0.4 ml ice-cold acetonitrile, which was mixed well and centrifuged at 4°C (10,000 g, 10 min). The supernatant (0.4 ml) was collected, mixed with 0.8 ml acetonitrile and then centrifuged at 4°C (10,000 g, 10 min). The supernatant (30 µL) was diluted with 970 µL ddH2O and 50 µL of the mixture was injected onto the high performance liquid chromatography/tandem mass spectrometry (HPLC-MS-MS) system for analysis. […] Microsomal studies using NF as the substrate were conducted as described above for CBZ with several modifications. The NF concentration was 1 µM. The supernatant (0.4 ml) of the reaction system after quenching and centrifugation was also combined with 0.8 ml acetonitrile and centrifuged, and 10 µL of the resultant supernatant was directly injected onto the HPLC-MS-MS system for analysis.
(§2) The HPLC was performed using an Agilent 1200 system (Palo Alto, CA, USA) equipped with a binary pump and an auto-sampler. […] The elution lasted for 8 min.
(§3) The MS analysis was performed on a 4000Q Trap™ triple quadrupole mass spectrometer (Applied Biosystems/MDS Sciex Instruments, Concord, Ontario, Canada) equipped with a Turbo V ion source (TurboIonSpray™ probe was used), a Dell™ computer, and Analyst™ software. Electrospray ionization in the positive mode was employed to analyze CBZ-E and ONF, respectively. The compound parameters for CBZ-E and ONF were: declustering potential, 65 and 95 units, and collision energy, 39 and 40 units, respectively. The ion source parameters were as follows: curtain gas, 15 units; collision gas, medium; ion spray voltage, 4000 and 5000 V, respectively; temperature, 650 and 350°C, respectively; ion source gas 1, 60.0 and 65.0 units, respectively; ion source gas 2, 45.0 units.

[2] = molecular target: T1, CYP3A4; assay: Carbamazepine 10,11-epoxidation in human liver microsomes; settings: for Effect on in vitro CBZ metabolism: 1-50 µM
Experimental: as §1, §2, §3

[3] = molecular target: T2, CYP2C9 (Homo sapiens, UniProt P11712); assay: Vivid CYP2C9 red fluorescent assay; format: in vitro ADME
T2 construct: purchased Invitrogen Corporation
Experimental: In brief, the assays were carried out in Costar® black-wall 96-well plates with ultra thin clear bottoms (Corning Inc, Corning, NY, USA) in a kinetic assay mode. […] For each well, 40 µL of solution of test compounds or vehicle was incubated with 50 µL pre-mixture (mixture of BACULOSOMES® reagent, regeneration system and reaction buffer) at 37°C for 20 min. […] The final methanol volume in the reaction was less than or equal to 1%.

[4] = molecular target: T1, CYP3A4; assay: Vivid CYP3A4 green fluorescent assay
Experimental: (§4) The inhibition of the catalytic activities of cDNA-expressed human P450 enzymes by ginsenosides was determined using Vivid® P450 screening kits (CYP1A2 blue, CYP2C9 red, CYP2C19 blue, CYP2D6 blue, CYP3A4 green and red) according to the manufacturer's instructions (Invitrogen Corporation; Carlsbad, CA, USA).
(§5) In brief, the assays were carried out in Costar® black-wall 96-well plates with ultra thin clear bottoms (Corning Inc, Corning, NY, USA) in a kinetic assay mode. Stock solutions (10 mM) of ginsenosides in methanol were prepared and diluted to various concentrations (2.5× 100, 50, 10, 5, 1 µM). For each well, 40 µL of solution of test compounds or vehicle was incubated with 50 µL pre-mixture (mixture of BACULOSOMES® reagent, regeneration system and reaction buffer) at 37°C for 20 min. The reaction was initiated by adding 10 µL of a mixture of substrate and NADP^+ per well with a respective concentration of Vivid® substrate (Table 1). The plate was read immediately for fluorescence changes every 0.5 min at 37°C for 30 min using a FlexStation II384 fluorometric plate reader (Molecular Devices, Sunnyvale, CA, USA) with respective excitation and emission wavelengths for each P450 enzyme (Table 1). The final methanol volume in the reaction was less than or equal to 1%.

[5] = molecular target: T3, CYP1A2 (Homo sapiens, UniProt P05177); assay: Vivid CYP1A2 blue fluorescent assay; settings: for IC50: IC50 CYP1A2 blue, cDNA-expressed enzyme, Vivid blue substrate 3 µM; for inhibition at 30 min, 50 µM: human
T3 sequence (P05177 1-516): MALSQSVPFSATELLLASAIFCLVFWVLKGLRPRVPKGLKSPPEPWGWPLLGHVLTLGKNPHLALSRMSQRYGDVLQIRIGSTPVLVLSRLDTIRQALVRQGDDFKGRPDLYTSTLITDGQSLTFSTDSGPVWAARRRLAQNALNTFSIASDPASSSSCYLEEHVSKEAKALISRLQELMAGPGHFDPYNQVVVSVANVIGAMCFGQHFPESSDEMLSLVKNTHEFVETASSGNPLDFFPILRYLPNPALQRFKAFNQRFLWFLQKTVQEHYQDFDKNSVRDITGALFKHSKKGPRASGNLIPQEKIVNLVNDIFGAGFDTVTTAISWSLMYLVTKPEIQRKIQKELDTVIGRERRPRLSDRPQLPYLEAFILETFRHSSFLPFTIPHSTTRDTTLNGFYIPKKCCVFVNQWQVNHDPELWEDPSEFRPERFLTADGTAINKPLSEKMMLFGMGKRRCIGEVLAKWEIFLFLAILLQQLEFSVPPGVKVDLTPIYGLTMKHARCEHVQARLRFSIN
Experimental: as §4, §5

[6] = molecular target: T1, CYP3A4; assay: Vivid CYP3A4 red fluorescent assay; settings: for Effect on CYP3A4 catalytic activity, Vivid red assay: red substrate
Experimental: as §4, §5

[7] = molecular target: CYP2C19 (Homo sapiens, UniProt P33261); assay: Vivid CYP2C19 blue fluorescent assay
Experimental: as §4, §5

[8] = molecular target: CYP2D6 (Homo sapiens, UniProt P10635); assay: Vivid CYP2D6 blue fluorescent assay; settings: for inhibition at 30 min, 50 µM: human
Experimental: as §4, §5

[9] = test system: CYP3A4; design: method as in PMID 15133536; settings: read-out: IC50 CYP3A4-mediated testosterone 6β-hydroxylation; cited from earlier work
[10] = cDNA-expressed enzyme, Vivid red substrate 2 µM, maximum concentration 50 µM, read-out: IC50 CYP2C9 red
[11] = recombinant (cDNA-expressed) CYP1A2 BACULOSOMES, probe Vivid blue substrate 3 µM
[12] = recombinant (cDNA-expressed) CYP2D6 BACULOSOMES, probe Vivid blue substrate 10 µM

T2 sequence (P11712 whole entry): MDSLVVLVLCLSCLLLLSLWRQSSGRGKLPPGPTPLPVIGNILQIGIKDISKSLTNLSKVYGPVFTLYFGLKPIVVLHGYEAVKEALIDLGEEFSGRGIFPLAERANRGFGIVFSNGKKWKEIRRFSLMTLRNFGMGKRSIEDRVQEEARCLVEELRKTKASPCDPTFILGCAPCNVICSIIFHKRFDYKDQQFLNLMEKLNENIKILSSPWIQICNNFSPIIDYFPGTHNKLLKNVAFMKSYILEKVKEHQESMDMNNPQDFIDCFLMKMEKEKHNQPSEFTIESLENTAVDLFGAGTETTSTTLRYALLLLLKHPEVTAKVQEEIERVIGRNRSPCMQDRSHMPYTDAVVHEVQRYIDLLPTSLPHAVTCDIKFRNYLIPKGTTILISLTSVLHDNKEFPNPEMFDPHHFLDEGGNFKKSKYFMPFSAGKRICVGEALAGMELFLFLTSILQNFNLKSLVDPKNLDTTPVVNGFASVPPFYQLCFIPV
Chain of CYP2D6 (P10635 whole entry): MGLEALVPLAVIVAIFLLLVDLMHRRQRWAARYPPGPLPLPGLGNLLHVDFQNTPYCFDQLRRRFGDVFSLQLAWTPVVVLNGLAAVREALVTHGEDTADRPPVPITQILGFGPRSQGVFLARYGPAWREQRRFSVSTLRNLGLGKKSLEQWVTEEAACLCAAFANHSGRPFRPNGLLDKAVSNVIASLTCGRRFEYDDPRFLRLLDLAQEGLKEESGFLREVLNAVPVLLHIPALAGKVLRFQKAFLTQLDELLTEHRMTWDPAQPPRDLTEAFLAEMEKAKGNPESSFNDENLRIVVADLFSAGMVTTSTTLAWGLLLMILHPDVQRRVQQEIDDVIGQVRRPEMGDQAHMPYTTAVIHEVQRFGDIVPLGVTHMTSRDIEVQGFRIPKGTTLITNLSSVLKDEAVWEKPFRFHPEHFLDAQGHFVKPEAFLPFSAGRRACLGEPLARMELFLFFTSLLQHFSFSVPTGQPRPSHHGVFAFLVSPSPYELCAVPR
T1 sequence (P08684 whole entry): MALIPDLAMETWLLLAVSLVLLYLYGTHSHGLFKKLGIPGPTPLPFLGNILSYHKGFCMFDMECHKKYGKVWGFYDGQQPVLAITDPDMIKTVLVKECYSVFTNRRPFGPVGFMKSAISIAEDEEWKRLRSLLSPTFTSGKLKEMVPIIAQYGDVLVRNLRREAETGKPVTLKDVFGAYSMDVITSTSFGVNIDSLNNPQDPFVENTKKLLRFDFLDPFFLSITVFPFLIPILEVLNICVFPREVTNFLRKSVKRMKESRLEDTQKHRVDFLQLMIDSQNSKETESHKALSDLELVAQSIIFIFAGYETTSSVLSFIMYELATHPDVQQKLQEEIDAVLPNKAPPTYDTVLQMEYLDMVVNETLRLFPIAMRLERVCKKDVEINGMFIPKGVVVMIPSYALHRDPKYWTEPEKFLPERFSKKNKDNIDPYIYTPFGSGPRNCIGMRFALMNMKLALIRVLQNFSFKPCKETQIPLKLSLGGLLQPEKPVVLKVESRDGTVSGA
Chain of CYP2C19 (P33261 whole entry): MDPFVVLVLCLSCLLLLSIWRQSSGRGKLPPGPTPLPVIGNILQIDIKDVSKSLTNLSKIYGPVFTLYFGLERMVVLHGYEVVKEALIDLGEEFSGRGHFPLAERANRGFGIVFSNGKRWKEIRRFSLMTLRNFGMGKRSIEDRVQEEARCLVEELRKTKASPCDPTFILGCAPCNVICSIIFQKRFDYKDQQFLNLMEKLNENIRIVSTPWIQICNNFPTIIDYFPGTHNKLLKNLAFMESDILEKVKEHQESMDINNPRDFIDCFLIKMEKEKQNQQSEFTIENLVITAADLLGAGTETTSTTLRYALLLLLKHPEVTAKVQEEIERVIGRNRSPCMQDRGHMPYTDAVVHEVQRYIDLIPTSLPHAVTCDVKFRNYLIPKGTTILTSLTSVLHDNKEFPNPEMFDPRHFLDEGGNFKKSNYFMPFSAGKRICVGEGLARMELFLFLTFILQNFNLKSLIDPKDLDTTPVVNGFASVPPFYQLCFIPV

Structure (SMILES) | IC50 [4] [µM] | IC50 [5] [µM] | Effect on NF in vitro metabolism [1] | IC50 [6] [µM] | Effect on CYP3A4 catalytic activity, Vivid red assay [6] | Effect on in vitro CBZ metabolism [2] | IC50 [7] [µM] | IC50 [8] [µM] | IC50 [3, 10] [µM] | inhibition at 30 min, 50 µM [5, 11] [%] | Effect on NF metabolism [1] | inhibition at 30 min, 50 µM [8, 12] [%] | further results
O=c1cc(-c2ccccc2)oc2c1ccc1ccccc12 [α-naphthoflavone, reference compound] |  |  |  |  |  |  |  |  |  |  |  |  | Effect on in vitro NF metabolism ([1]; 10 µM): did not significantly alter; Increase of CBZ metabolism vs vehicle control ([2]; 10 µM): 772%
CC(C)=CCC[C@](C)(O)[C@H]1CC[C@]2(C)[C@@H]1[C@H](O)C[C@@H]1[C@@]3(C)CC[C@H](O[C@@H]4O[C@H](CO)[C@@H](O)[C@H](O)[C@H]4O)C(C)(C)[C@@H]3CC[C@]12C [Rh2] | 47 | > 100 | weak activation effect | 9.8 | inhibited CYP3A4 in a dose-dependent manner | did not significantly alter | 49.9 | > 50 |  |  |  |  | IC50 [3]: 30.9 µM; inhibition at 30 min, 50 µM [5]: 39.4%; Effect on CYP3A4-catalyzed NF oxidation ([1]; high concentration (50 µM)): weakly inhibited; inhibition at 30 min, 50 µM [8]: 20.3%
CC(C)(O)CCC[C@@](C)(O)[C@H]1CC[C@]2(C)[C@@H]1[C@H](O)C[C@@H]1[C@@]3(C)CC[C@H](O)C(C)(C)[C@@H]3CC[C@]12C [20(R)-25-OH-PPD, 20(R)-dammarane-3β, 12β, 20, 25-tetrol] | 25.6 | > 100 |  |  | activated the catalytic activity of CYP3A4 | substantially activated | 69.1 | > 50 | 7.6 | 22.8 | negligible | 31.8 | Activation of CYP3A4, Vivid red assay (fold) ([6]; 10 µM): about two-fold
COC(C)(C)CCC[C@](C)(O)[C@H]1CC[C@]2(C)[C@@H]1[C@H](O)C[C@@H]1[C@@]3(C)CC[C@H](O)C(C)(C)[C@@H]3CC[C@]12C [25-OCH3-PPD, 20(S)-25-methoxyl-dammarane-3β, 12β, 20-triol] | 17.7 | > 100 |  | > 100 |  | substantially activated | 26.5 | > 50 | 7.5 | 4.8 | negligible | 12.6 | Activation of CYP3A4, Vivid red assay ([6]; 10 µM): about 20%; Effect on CYP3A4, Vivid red assay ([6]; high concentrations): weakly inhibited; inhibition at 30 min, 50 µM ([6]; human, recombinant (cDNA-expressed) CYP3A4 BACULOSOMES, probe Vivid red substrate 3 µM): 25.4%
CC(C)=CCC[C@](C)(O)[C@H]1CC[C@]2(C)[C@@H]1[C@H](O)C[C@@H]1[C@@]3(C)CC[C@H](O)C(C)(C)[C@@H]3CC[C@]12C [PPD, protopanaxadiol] | 9.3 | 86.6 | weak activation effect | 43.1 | inhibited CYP3A4 in a dose-dependent manner | substantially activated | 52.6 | > 50 | 8 |  |  | 25.9 | Activation of CBZ metabolism (fold) ([2]; 10 µM): about five-fold
CC(C)=CCC[C@](C)(O[C@@H]1O[C@H](CO)[C@@H](O)[C@H](O)[C@H]1O)[C@H]1CC[C@]2(C)[C@@H]1[C@H](O)C[C@@H]1[C@@]3(C)CC[C@H](O[C@@H]4O[C@H](CO)[C@@H](O)[C@H](O)[C@H]4O[C@@H]4O[C@H](CO)[C@@H](O)[C@H](O)[C@H]4O)C(C)(C)[C@@H]3CC[C@]12C [Rd] | > 100 | > 100 |  | 72.7 |  |  | > 100 | > 50 | > 50 | 38.3 |  | 18.1 | inhibition at 30 min, 50 µM ([3]; human, recombinant (cDNA-expressed) CYP2C9 BACULOSOMES, probe Vivid red substrate 2 µM): 34.8%; inhibition at 30 min, 50 µM ([4]; human, recombinant (cDNA-expressed) CYP3A4 BACULOSOMES, probe Vivid green substrate 2 µM): 12.6%; IC50 [9]: 62 µM; inhibition at 30 min, 50 µM ([7]; human, recombinant (cDNA-expressed) CYP2C19 BACULOSOMES, probe Vivid blue substrate 10 µM): 27.7%
